Reference: the supplement of paper PMC10307832

Experiments:
Test in all cases: relative viability (nuclei count vs DMSO), 5 days (fraction); higher = more cells survive
NCI-H1755 = test system: NCI-H1755
Method in brief: (§1)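 Values are medians from duplicate plates. Each reflects relative viability, defined as the nuclei count of treated wells over that of vehicle wells. Lung cancer cell lines in 1536-well plates were pin-tool dosed one day after seeding with one drug alone or with a fixed anchor-drug dose plus five library-drug doses (not always all listed) in √10 steps, then fixed, stained and imaged at 4× after 5 days.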

NCI-H2170 = test system: NCI-H2170
Method in brief: as §1

NCI-H1651 = test system: NCI-H1651
Method in brief: as §1

SK-MES-1 = test system: SK-MES-1
Method in brief: as §1

NCI-H1650 = test system: NCI-H1650
Method in brief: as §1

NCI-H1437 = test system: NCI-H1437
Method in brief: as §1

BEN = test system: BEN
Method in brief: as §1

NCI-H1666 = test system: NCI-H1666
Method in brief: as §1

NCI-H520 = test system: NCI-H520
Method in brief: as §1

CAL-12T = test system: CAL-12T
Method in brief: as §1

NCI-H2085 = test system: NCI-H2085
Method in brief: as §1

COR-L23 = test system: COR-L23
Method in brief: as §1

PC-14 = test system: PC-14
Method in brief: as §1

NCI-H2087 = test system: NCI-H2087
Method in brief: as §1

LU99A = test system: LU99A
Method in brief: as §1

NCI-H1355 = test system: NCI-H1355
Method in brief: as §1

NCI-H460 = test system: NCI-H460
Method in brief: as §1

HCC-44 = test system: HCC-44
Method in brief: as §1

LXF-289 = test system: LXF-289
Method in brief: as §1

NCI-H1993 = test system: NCI-H1993
Method in brief: as §1

NCI-H1792 = test system: NCI-H1792
Method in brief: as §1

SMILES: CN1CCN(CCOc2cc(OC3CCOCC3)c3c(Nc4c(Cl)ccc5c4OCO5)ncnc3c2)CC1 [Saracatinib] + CC(=O)c1c(C)c2cnc(Nc3ccc(N4CCNCC4)cn3)nc2n(C2CCCC2)c1=O [Palbociclib] (partner 0.5 µM)
- relative viability (NCI-H1755; first compound 0.02 µM): 0.448
- relative viability (NCI-H1755; first compound 0.2 µM): 0.395
- relative viability (NCI-H1755; first compound 0.6325 µM): 0.45
- relative viability (NCI-H1755; first compound 2 µM): 0.435
- relative viability (NCI-H2170; first compound 0.02 µM): 0.39
- relative viability (NCI-H2170; first compound 0.2 µM): 0.39
- relative viability (NCI-H2170; first compound 0.6325 µM): 0.441
- relative viability (NCI-H2170; first compound 2 µM): 0.354
- relative viability (NCI-H1651; first compound 0.02 µM): 0.587
- relative viability (NCI-H1651; first compound 0.2 µM): 0.478
- relative viability (NCI-H1651; first compound 0.6325 µM): 0.642
- relative viability (NCI-H1651; first compound 2 µM): 0.567
- relative viability (SK-MES-1; first compound 0.02 µM): 0.3
- relative viability (SK-MES-1; first compound 0.2 µM): 0.31
- relative viability (SK-MES-1; first compound 0.6325 µM): 0.309
- relative viability (SK-MES-1; first compound 2 µM): 0.256
- relative viability (NCI-H1650; first compound 0.02 µM): 0.334
- relative viability (NCI-H1650; first compound 0.2 µM): 0.28
- relative viability (NCI-H1650; first compound 0.6325 µM): 0.267
- relative viability (NCI-H1650; first compound 2 µM): 0.159
- relative viability (NCI-H1437; first compound 0.02 µM): 0.355
- relative viability (NCI-H1437; first compound 0.2 µM): 0.337
- relative viability (NCI-H1437; first compound 0.6325 µM): 0.455
- relative viability (NCI-H1437; first compound 2 µM): 0.308
- relative viability (BEN; first compound 0.02 µM): 0.513
- relative viability (BEN; first compound 0.2 µM): 0.407
- relative viability (BEN; first compound 0.6325 µM): 0.485
- relative viability (BEN; first compound 2 µM): 0.435
- relative viability (NCI-H1666; first compound 0.02 µM): 0.684
- relative viability (NCI-H1666; first compound 0.2 µM): 0.474
- relative viability (NCI-H1666; first compound 0.6325 µM): 0.599
- relative viability (NCI-H1666; first compound 2 µM): 0.651
- relative viability (NCI-H520; first compound 0.02 µM): 0.249
- relative viability (NCI-H520; first compound 0.2 µM): 0.211
- relative viability (NCI-H520; first compound 0.6325 µM): 0.214
- relative viability (NCI-H520; first compound 2 µM): 0.156
- relative viability (CAL-12T; first compound 0.02 µM): 0.542
- relative viability (CAL-12T; first compound 0.2 µM): 0.409
- relative viability (CAL-12T; first compound 0.6325 µM): 0.527
- relative viability (CAL-12T; first compound 2 µM): 0.152
- relative viability (NCI-H2085; first compound 0.02 µM): 0.518
- relative viability (NCI-H2085; first compound 0.2 µM): 0.448
- relative viability (NCI-H2085; first compound 0.6325 µM): 0.499
- relative viability (NCI-H2085; first compound 2 µM): 0.48
- relative viability (COR-L23; first compound 0.02 µM): 0.278
- relative viability (COR-L23; first compound 0.2 µM): 0.301
- relative viability (COR-L23; first compound 0.6325 µM): 0.243
- relative viability (COR-L23; first compound 2 µM): 0.287
- relative viability (PC-14; first compound 0.02 µM): 0.471
- relative viability (PC-14; first compound 0.2 µM): 0.217
- relative viability (PC-14; first compound 0.6325 µM): 0.0934
- relative viability (PC-14; first compound 2 µM): 0.0848
- relative viability (NCI-H2087; first compound 0.02 µM): 0.252
- relative viability (NCI-H2087; first compound 0.2 µM): 0.255
- relative viability (NCI-H2087; first compound 0.6325 µM): 0.303
- relative viability (NCI-H2087; first compound 2 µM): 0.179
- relative viability (LU99A; first compound 0.02 µM): 0.413
- relative viability (LU99A; first compound 0.2 µM): 0.336
- relative viability (LU99A; first compound 0.6325 µM): 0.349
- relative viability (LU99A; first compound 2 µM): 0.31
- relative viability (NCI-H1355; first compound 0.02 µM): 0.401
- relative viability (NCI-H1355; first compound 0.2 µM): 0.432
- relative viability (NCI-H1355; first compound 0.6325 µM): 0.416
- relative viability (NCI-H1355; first compound 2 µM): 0.371
- relative viability (NCI-H460; first compound 0.02 µM): 0.146
- relative viability (NCI-H460; first compound 0.2 µM): 0.131
- relative viability (NCI-H460; first compound 0.6325 µM): 0.228
- relative viability (NCI-H460; first compound 2 µM): 0.121
- relative viability (HCC-44; first compound 0.02 µM): 1.01
- relative viability (HCC-44; first compound 0.2 µM): 0.974
- relative viability (HCC-44; first compound 0.6325 µM): 0.979
- relative viability (HCC-44; first compound 2 µM): 0.938
- relative viability (LXF-289; first compound 0.02 µM): 0.621
- relative viability (LXF-289; first compound 0.2 µM): 0.582
- relative viability (LXF-289; first compound 0.6325 µM): 0.601
- relative viability (LXF-289; first compound 2 µM): 0.571
- relative viability (NCI-H1993; first compound 0.02 µM): 0.65
- relative viability (NCI-H1993; first compound 0.2 µM): 0.584
- relative viability (NCI-H1993; first compound 0.6325 µM): 0.701
- relative viability (NCI-H1993; first compound 2 µM): 0.523
- relative viability (NCI-H1792; first compound 0.02 µM): 0.567
- relative viability (NCI-H1792; first compound 0.2 µM): 0.439
- relative viability (NCI-H1792; first compound 0.6325 µM): 0.781
- relative viability (NCI-H1792; first compound 2 µM): 0.55
